# Experimental data from patent US5153352A, “Process for preparation of intermediates of carbocyclic nucleoside analogs” (priority 1990, dated 1992).
# What was measured:
# [1] = compound cytotoxicity in ATH8 cells (HIV CPE inhibition assay); type: cell-based; details: human, read-out: MTC
# Method: The ATH8 human T-cell line expresses high levels of the CD4 surface antigen and is quite sensitive to the cytopathogenic effect (CPE) of HIV. The cells were propagated in RPMI 1640 medium supplemented with 4mM glutamine, 15% heat-inactivated fetal bovine serum (Biocell), antibiotics (50 units of penicillin and […] of streptomycin per ml), and 50 units of recombinant-derived human interleukin-2 (ala-125; AMGen Biologicals) per ml.
# ATH8 cells were used as the primary target in the HIV induced CPE inhibition assay. Cells were treated with polybrene (2 ug/ml in growth medium) for 30 minutes at 37° C., then collected by gentle centrifugation (40×g for 15 minutes at room temperature) and resuspended in clarified (8000×g for 15 minutes at 4° C.) supernate freshly harvested from 48 hours post passage H9/HTL IIIB cells. Following a 60-minute adsorption period at 37° C., the cells were dispensed into the U-bottom wells of 96-well trays (1×10^4 cells in 0.1 ml per well). […] Test compounds were evaluated at seven half-log dilutions ranging from 100 uq/ml to 0.1 uq/ml. […]
# Between 7 and 10 days post infection, all wells were visually monitored for the degree of CPE inhibition as reflected by cell pellet size, and aliquots were taken from selected wells for determination of cell number and viability (based on trypan blue dye exclusion).
# HSV-1(123) = experiment: plaque reduction, HSV-1(123) in Vero cells; type: cell-based, Herpes simplex virus type 1; details: Human alphaherpesvirus 1, plaque reduction 50%, read-out: MIC50
# Method: (§1) After the adsorption period, the infected cell monolayers were treated in duplicate with serial dilutions of the test compound. Duplicate cell controls containing medium alone and virus controls containing medium and virus were run simultaneously with the test compound. […] Plaques visible to the unaided eye were counted and the mean number of plaques in the duplicate wells for each compound concentration tested and for the untreated, virus infected controls were determined.
# HSV-2 = experiment: plaque reduction, HSV-2 in Vero cells; type: cell-based, Herpes simplex virus type 2; details: Human alphaherpesvirus 2; HSV-2, Vero, plaque reduction 50%; read-out: MIC50
# Method: as §1
# Herpesvirus 1 = experiment: in vivo activity against intraperitoneal Herpesvirus 1 challenge in mice; design: species or system mouse infected with Herpesvirus 1 (strain 123); details: for No. Dead/No. Infected: 7 doses; for GMTD (geometric mean time to death): monitored daily for 21 days
# Method: (§2) Four-week-old female outbred Swiss mice (CD 1, VAF+, Charles River Labs) were housed 5 per Microisolator® cage. Feed and water were supplied ad libitum. Fifteen mice were randomly assigned to each of the following treatment groups:
# 2. diluent (0.4% CMC/PBS controls)
# 3. 100 mg/kg test compound
# 4. 32 mg/kg test compound
# 5. 10 mg/kg test compound
# 6. 3.2 mg/kg test compound
# (§3) Test compounds were diluted in 0.4% carboxymethylcellulose (CMC) prepared in phosphate buffered saline (PBS) at concentrations consistent with dosing at 0.1 ml per 10 q of body weight. Compounds were administered subcutaneously once daily for a total of 7 doses. Five mice in each treatment group served as uninfected toxicity controls. The remaining ten mice in each group were challenged intraperitoneally with an LD90 dose of the twelfth in vivo passage of Herpesvirus 1 (strain 123). Virus challenge was administered two hours after the first dose of compound was given. Mortality was monitored daily for 21 days. The mortality rates, average day of death, geometric mean time to death and virus rating were calculated for each treatment group.
# mice = experiment: toxicity in uninfected mice (Herpesvirus 1 study); type: in vivo, mouse; details: 7 doses
# Method: as §2, §3
# Epstein-Barr virus (EBV) = experiment: EBV genome copies in virus producing cells (P3HR-1); type: cell-based; details: P3HR-1 cells, 14 days, control 214
# Method: Virus producing cells (P3HR-1) were exposed to test compound for 14 days and EBV genome copies per cell were determined by EBV specific cRNA DNA hybridization (Lin, et al., J. Virology 50 50-55 (1984). The results of this test are presented in Table 7.
# Varicella-Zoster Virus = experiment: microbe, parasite or virus in culture; type: cell-based, Varicella-Zoster virus (clinical isolate DM625); details: Human alphaherpesvirus 3, Fibroblast, 120 h
# in vitro = details: human, human foreskin fibroblasts, MTT Assay
# [2] = drug cytotoxicity in Vero cells (CPE-inhibition assay); details: monkey, vero cells
# Vero cells = experiment: as above; details: Vero
smiles,measurement,setting,value
"Nc1ncnc2c1ncn2C1CC(CO)C1CO (stereo not drawn) [Example 4C, 9-(2',3'-Bis(hydroxymethyl)cyclobutyl)adenine]",MCC,[1],3.2 µg/mL
"Nc1nc2c(ncn2C2CC(CO)C2CO)c(=O)[nH]1 (stereo not drawn) [Example 1I, 9-(2',3'-Bis(hydroxymethyl)cyclobutyl)guanine]",EC50,HSV-1(123),1 µg/mL
same,EC50,HSV-2,1 µg/mL
same,"VR (virus rating, GMTD of experimental/GMTD of diluent-treated control)",Herpesvirus 1; 3.2 mg/kg s.c.,1.3
same,No. Dead/No. Infected,Herpesvirus 1; 3.2 mg/kg s.c. once daily,8/10
same,GMTD (geometric mean time to death),Herpesvirus 1; 3.2 mg/kg s.c.,10.8
same,"VR (virus rating, GMTD of experimental/GMTD of diluent-treated control)",Herpesvirus 1; 10 mg/kg s.c.,1.6
same,No. Dead/No. Infected,Herpesvirus 1; 10 mg/kg s.c. once daily,5/10
same,GMTD (geometric mean time to death),Herpesvirus 1; 10 mg/kg s.c.,13.0
same,"VR (virus rating, GMTD of experimental/GMTD of diluent-treated control)",Herpesvirus 1; 32 mg/kg s.c.,2.5
same,No. Dead/No. Infected,Herpesvirus 1; 32 mg/kg s.c. once daily,0/10
same,GMTD (geometric mean time to death),Herpesvirus 1; 32 mg/kg s.c.,21.0
same,No. Dead/No. Uninfected,mice; 3.2 mg/kg s.c. once daily,0/5
same,No. Dead/No. Uninfected,mice; 10 mg/kg s.c. once daily,0/5
same,No. Dead/No. Uninfected,mice; 32 mg/kg s.c. once daily,0/3
same,EBV genome copies/cell,Epstein-Barr virus (EBV); 0.01 uM,223 EBV genome copies/cell
same,EBV genome copies/cell,Epstein-Barr virus (EBV); 0.10 uM,181 EBV genome copies/cell
same,EBV genome copies/cell,Epstein-Barr virus (EBV); 1.00 uM,40 EBV genome copies/cell
same,EBV genome copies/cell,Epstein-Barr virus (EBV); 5.00 uM,12 EBV genome copies/cell
same,EBV genome copies/cell,Epstein-Barr virus (EBV); 10.00 uM,10 EBV genome copies/cell
same,EC50,"Varicella-Zoster Virus; VZV plaque formation, human foreskin fibroblasts, read-out: MIC50",1.4 µg/mL
same,inhibition at 0.1 µg/mL,"Varicella-Zoster Virus; VZV, 0.1 ug/ml, read-out: Plaque Reduction",11.5%
same,inhibition at 0.32 µg/mL,"Varicella-Zoster Virus; VZV, 0.32 ug/ml, read-out: Plaque Reduction",18%
same,inhibition at 1 µg/mL,"Varicella-Zoster Virus; VZV, 1.0 ug/ml, read-out: Plaque Reduction",47.1%
same,inhibition at 3.2 µg/mL,"Varicella-Zoster Virus; VZV, 3.2 ug/ml, read-out: Plaque Reduction",97.7%
same,inhibition at 10 µg/mL,"Varicella-Zoster Virus; VZV, 10 ug/ml, read-out: Plaque Reduction",100%
same,inhibition at 32 µg/mL,"Varicella-Zoster Virus; VZV, 32 ug/ml, read-out: Plaque Reduction",100%
same,inhibition at 100 µg/mL,Varicella-Zoster Virus; read-out: Plaque Reduction,100%
same,viability,in vitro; 3.2 ug/ml,79%
same,viability,in vitro; 10 ug/ml,76%
same,viability,in vitro; 32 ug/ml,72%
same,viability,in vitro; 100 ug/ml,62%
same,MCC,[2],100 µg/mL
same,MCC,"[2]; MTC (minimum drug concentration causing any cytotoxicity), Vero, HSV-2 (MS) experiment",320 µg/mL
same,MTC (minimum drug concentration causing any cytotoxicity),Vero cells; HSV-2 (BW9787) TK- experiment,100 µg/mL
same,MTC (minimum drug concentration causing any cytotoxicity),Vero cells; HSV-2 (MS) experiment,320 µg/mL
